Data set [1] in a line: ASSAY (X) pK, determination of T½ in rat. Format: in vivo. The note with it: male, Sprague Dawley, plasma, iv, 20 nmol/kg.
The test system of data set [2] is Male Wistar rats. The data set can be described thus: ASSAY (XII) effect from single subcutaneous administration on plasma calcium in rats. Format: in vivo, rat. The procedure, abridged: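 Male Wistar rats (~250 g), groups of five, received a single subcutaneous dose at time 0. Blood drawn at −15 min, 1, 2, 4, 7, 12 and 24 h; total calcium measured in heparin plasma, reported as mean±SEM.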

The test system of data set [3] is Male Sprague-Dawley rats. Briefly: ASSAY (XI) single subcutaneous administration, food intake monitored for 48 hours in rats. Conditions: for Food intake red (%) 0-24 h / Food intake red (%) 24-48 h: single s.c., compared to vehicle. Format: in vivo, rat. An outline of the steps:
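Male Sprague-Dawley rats from Taconic Europe, weighing about 250 g on the test day, were singly housed in an online food intake monitoring system (Ellegaard MBRose, Denmark). Before the study they were acclimatized to a reversed light cycle, with lights on from 10 PM to 10 AM. Each rat then received one subcutaneous dose of the analogue, and data are reported as mean±SEM.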

The nature of data set [4]: ASSAY (IX) pK, determination of T½ in mini-pig. Format: in vivo. The note with it: male, Göttingen, minipig, plasma, iv, 2 nmol/kg.

Structures are written as SMILES.

Usually half-life stands for how long it takes for the measured level to halve. Low readings indicate fast loss, high ones slow loss. Take `CC[C@H](C)[C@H](NC(=O)[C@H](C)NC(=O)CNC(=O)[C@H](Cc1ccccc1)NC(=O)[C@H](CC(N)=O)NC(=O)[C@@H]1CCCN1C(=O)[C@H](CO)NC(=O)[C@H](CO)NC(=O)[C@H](Cc1c[nH]cn1)NC(=O)[C@H](CCCNC(=N)N)NC(=O)[C@H](CC(C)C)NC(=O)[C@H](Cc1ccccc1)NC(=O)[C@H](CC(=O)O)NC(=O)[C@H](C)NC(=O)[C@H](CC(C)C)NC(=O)[C@H](CCCNC(=N)N)NC(=O)[C@H](CCC(N)=O)NC(=O)[C@@H](NC(=O)[C@H](C)NC(=O)[C@@H]1CSSC[C@H](NC(=O)[C@@H](N)CCCCNC(=O)CC[C@H](NC(=O)CC[C@H](NC(=O)CCCCCCCCCCCCCCCCCCC(=O)O)C(=O)O)C(=O)O)C(=O)N[C@@H](CC(N)=O)C(=O)N[C@@H]([C@@H](C)O)C(=O)N[C@@H](C)C(=O)N[C@@H]([C@@H](C)O)C(=O)N1)[C@@H](C)O)C(=O)N1CCC[C@H]1C(=O)N[C@@H](CO)C(=O)N[C@@H](CO)C(=O)N[C@H](C(=O)N[C@@H](CC(N)=O)C(=O)N[C@H](C(=O)NCC(=O)N[C@@H](CO)C(=O)N[C@@H](CCCNC(=N)N)C(=O)N[C@H](C(=O)N[C@@H](Cc1ccc(O)cc1)C(N)=O)[C@@H](C)O)C(C)C)[C@@H](C)O` [Example 52, N-ε-1-{(S)-4-carboxy-4-[(S)-4-carboxy-4-(19-carboxynonadecanoylamino)butyrylamino]butyryl}-[Asp14,Arg17,Pro21,Pro27,Arg35]-human amylin]: the values for the half-life in data set [1] and in data set [4] were 1260 min and 4.15 days, respectively. Besides, the “Plasma calcium red (%) 0-12 h (maximal)” value in data set [2] (single s.c., 30 nmol/kg, 0-12 h, compared to vehicle) is reported as 12%. Further, the “suppression of plasma calcium level relative to vehicle” value in data set [2] (single subcutaneous administration, increasing doses (all doses tested), monitored over 24 hours) was “None of the doses trigger a notable suppression of the calcium level”. Besides, the “Food intake red (%) 0-24 h” value in data set [3] (3 nmol/kg) was 25%; in data set [3] (30 nmol/kg), 63%. In addition, the “Food intake red (%) 24-48 h” value in data set [3] (3 nmol/kg) was determined as 15%; in data set [3] (30 nmol/kg), 50%. Besides, the “food intake monitored over 48 hours” value in data set [3] (single subcutaneous administration, 30 nmol/kg, versus vehicle) was “reduces food intake”.

Consider `CC[C@H](C)[C@H](NC(=O)[C@H](C)NC(=O)CNC(=O)[C@H](Cc1ccccc1)NC(=O)[C@H](CC(N)=O)NC(=O)[C@@H]1CCCN1C(=O)[C@H](CO)NC(=O)[C@H](CO)NC(=O)[C@H](Cc1c[nH]cn1)NC(=O)[C@H](CCCNC(=N)N)NC(=O)[C@H](CC(C)C)NC(=O)[C@H](Cc1ccccc1)NC(=O)[C@H](CC(N)=O)NC(=O)[C@H](C)NC(=O)[C@H](CC(C)C)NC(=O)[C@H](CCCNC(=N)N)NC(=O)[C@H](CCC(N)=O)NC(=O)[C@@H](NC(=O)[C@H](C)NC(=O)[C@@H]1CSSC[C@H](NC(=O)[C@@H](N)CCCCNC(=O)CC[C@H](NC(=O)CCCCCCCCCCCCCCCCCCC(=O)O)C(=O)O)C(=O)N[C@@H](CC(N)=O)C(=O)N[C@@H]([C@@H](C)O)C(=O)N[C@@H](C)C(=O)N[C@@H]([C@@H](C)O)C(=O)N1)[C@@H](C)O)C(=O)N1CCC[C@H]1C(=O)N[C@@H](CO)C(=O)N[C@@H](CO)C(=O)N[C@H](C(=O)N[C@@H](CC(N)=O)C(=O)N[C@H](C(=O)NCC(=O)N[C@@H](Cc1c[nH]cn1)C(=O)N[C@@H](CC(N)=O)C(=O)N[C@H](C(=O)N[C@@H](Cc1ccc(O)cc1)C(N)=O)[C@@H](C)O)C(C)C)[C@@H](C)O` [Example 77], for which the half-life in data set [1] is 1080 min; in data set [4], 3.38 days.

For the origin of these results see US9023789B2, “Amylin analogs and pharmaceutical compositions thereof” (Novo Nordisk A/S, priority 2012, dated 2015).
